From the supplement of paper PMC8967900

Experiments:
Assay in all cases: selective drug sensitivity score (sDSS, relative to normal bone marrow) (sDSS (score)); higher = more potent and effective on the cell line relative to normal bone marrow cells
Settings in all cases: 72 h
[1] = system: NALM-16
[2] = system: SUP-B15
[3] = system: SEM cells
[4] = system: REH
[5] = system: PEER
[6] = system: 697
[7] = system: COG-LL-317
[8] = system: COG-LL-355h
[9] = system: HAL-01
[10] = system: JURKAT
[11] = system: MHH-CALL-2
[12] = system: P30-OHKUBO
[13] = system: COG-LL-402h
[14] = system: NALM-6
[15] = system: ALL-SIL
[16] = system: LC4-1
[17] = system: RPMI-8402
[18] = system: KASUMI-2
[19] = system: MOLT-14
[20] = system: MHH-CALL-3
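Note: ALL cell lines in 384-well plates, five doses spanning 10,000-fold, each plate scaled between vehicle and 100 µmol/L benzalkonium chloride controls, sDSS an adapted area-under-curve metric.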

Compound	selective drug sensitivity score [1]	selective drug sensitivity score [2]	selective drug sensitivity score [3]	selective drug sensitivity score [4]	selective drug sensitivity score [5]	selective drug sensitivity score [6]	selective drug sensitivity score [7]	selective drug sensitivity score [8]	selective drug sensitivity score [9]	selective drug sensitivity score [10]	selective drug sensitivity score [11]	selective drug sensitivity score [12]	selective drug sensitivity score [13]	selective drug sensitivity score [14]	selective drug sensitivity score [15]	selective drug sensitivity score [16]	selective drug sensitivity score [17]	selective drug sensitivity score [18]	selective drug sensitivity score [19]	selective drug sensitivity score [20]
CC[C@H](CO)Nc1nc(NCc2ccccc2)c2ncn(C(C)C)c2n1 [Seliciclib] (top concentration 10000 nM)	-1.04	3.26	-0.04	-0.14	-0.24	1.16	3.56	2.46	-0.34	-0.84	1.26	-0.14	-1.04	-1.04	3.06	1.06	-0.54	-1.04	-1.04	-1.04
CN1CCN(C(=O)c2ccc3cc(CCNc4ncnc5ccc(C#N)cc45)ccc3c2)CC1 [Senexin_B] (top concentration 1000 nM)	-0.6	2.8	-0.6	-0.6	1.8	2.1	0.5	-0.6	-0.6	3.1	-0.1	0.4	-0.4	0.9	-0.6	-0.6	1.1	-0.6	2.1	-0.1
Clc1ccccc1C(c1ccccc1)(c1ccccc1)n1cccn1 [TRAM-34] (top concentration 1000 nM)	-0.08	-0.08	-0.08	0.22	-0.08	-0.08	-0.08	-0.08	2.72	-0.08	1.12	1.12	-0.08	-0.08	-0.08	-0.08	-0.08	-0.08	-0.08	-0.08
C=CC[C@@H]1/C=C(\C)C[C@H](C)C[C@H](OC)[C@H]2O[C@@](O)(C(=O)C(=O)N3CCCC[C@H]3C(=O)O[C@H](/C(C)=C/[C@@H]3CC[C@@H](O)[C@H](OC)C3)[C@H](C)[C@@H](O)CC1=O)[C@H](C)C[C@@H]2OC [Tacrolimus] (top concentration 10000 nM)	12.5	18.3	7.88	2.68	1.38	2.88	0.68	3.18	8.58	1.78	24.6	16.1	-0.72	0.98	1.08	21.1	1.38	-0.72	1.38	33.9
CCN(c1cc(-c2ccc(CN3CCOCC3)cc2)cc(C(=O)NCc2c(C)cc(C)[nH]c2=O)c1C)C1CCOCC1 [Tazemetostat] (top concentration 10000 nM)	-0.08	-0.08	2.42	-0.08	0.32	0.32	-0.08	-0.08	3.82	0.02	6.72	0.42	-0.08	-0.08	0.12	-0.08	0.22	-0.08	0.32	-0.08
COc1cc2c(Nc3ccc(Cl)c(Cl)c3F)ncnc2cc1OC[C@@H]1C[C@@H]2CN(C)C[C@@H]2C1 [Tesevatinib] (top concentration 1000 nM)	-1.36	-1.36	1.44	-1.36	1.84	-0.66	0.04	2.04	2.44	-0.16	1.44	0.94	1.64	-0.16	-0.26	-1.16	0.44	-1.36	-0.56	3.64
O=C1CCC(N2C(=O)c3ccccc3C2=O)C(=O)N1 (stereo not given) [Thalidomide] (top concentration 10000 nM)	-0.14	-0.14	-0.14	-0.04	-0.14	-0.14	-0.14	0.16	0.36	-0.14	-0.14	-0.14	-0.14	-0.14	-0.14	-0.14	-0.14	-0.14	-0.14	-0.14
O=C1NC(=O)[C@@H](c2cn3c4c(cccc24)CCC3)[C@@H]1c1c[nH]c2ccccc12 [Tivantinib] (top concentration 1000 nM)	4.28	2.88	7.18	7.78	4.38	5.18	3.68	0.18	5.78	3.98	8.48	6.58	2.38	5.08	7.18	4.08	3.68	0.68	3.18	0.78
C[C@@H]1CCN(C(=O)CC#N)C[C@@H]1N(C)c1ncnc2[nH]ccc12 [Tofacitinib] (top concentration 5000 nM)	-7.86	-7.86	-7.86	-7.66	-4.66	-6.86	-7.86	0.44	-7.86	-7.86	-7.86	-6.66	-7.86	-7.86	-7.86	-7.86	-7.86	-7.86	-7.66	-7.86
